{"source": "paper PMC3050703", "about": "(Cancer chemotherapy and pharmacology, 2010)", "key": {"[1]": {"system": "xenografts of leukemia, pancreatic cancer, and colon cancer", "conditions": "ref [1]; cited from earlier work"}, "T315I mutant Abl kinase": {"biological_target": "T315I mutant Abl kinase", "conditions": "read-out: Ki T315I mutant Abl; ref [3]; cited from earlier work"}, "MCF-7 cells": {"system": "MCF-7 cells", "conditions": "read-out: IC50 proliferation of transformed MCF-7 cells; ref [1]; cited from earlier work"}, "[2]": {"test": "Plasma pharmacokinetics in patients", "format": "in vivo, human", "conditions": "for clearance / half-life / Vd / Cmax: human, plasma, intravenous"}, "Aurora kinase A": {"biological_target": "Aurora kinase A", "conditions": "read-out: Ki Aurora kinase A; ref [3]; cited from earlier work"}, "HCT116 colon cancer": {"system": "HCT116 colon cancer", "conditions": "ref [1], cited from earlier work"}, "advanced solid tumors": {"system": "advanced solid tumors", "test": "Anti-tumor activity per RECIST in patients", "format": "in vivo, human"}, "Abl": {"biological_target": "Abl", "conditions": "read-out: Ki Abl; ref [3]; cited from earlier work"}, "[3]": {"conditions": "Dose Level 1 (4 mg/m^2/hr), N=1, any cycle, regardless of attribution"}, "[4]": {"conditions": "Dose Level 2 (8 mg/m^2/hr), N=2, any cycle, regardless of attribution"}, "[5]": {"conditions": "Dose Level 3 (16 mg/m^2/hr), N=2, any cycle, regardless of attribution"}, "[6]": {"conditions": "Dose Level 4 (32 mg/m^2/hr), N=3, any cycle, regardless of attribution"}, "[7]": {"conditions": "Dose Level 5 (45 mg/m^2/hr), N=4, any cycle, regardless of attribution"}, "[8]": {"conditions": "Dose Level 6 (64 mg/m^2/hr), N=2, any cycle"}, "[9]": {"conditions": "Dose Level 6 (64 mg/m^2/hr), N=2, any cycle, regardless of attribution"}, "[10]": {"conditions": "Dose Level 6 (oral 100 mg) (64 mg/m^2/hr), N=7, any cycle"}, "[11]": {"conditions": "Dose Level 6 (oral 100 mg) (64 mg/m^2/hr), N=7, any cycle, regardless of attribution"}, "[12]": {"conditions": "Dose Level 7 (96 mg/m^2/hr), N=6, any cycle"}, "[13]": {"conditions": "Dose Level 7 (96 mg/m^2/hr), N=6, any cycle, regardless of attribution"}}, "note": "Read-outs that look alike come from different tables or passages of the source.", "data": [{"smiles": "Cc1cc(Nc2cc(N3CCN(C)CC3)nc(Sc3ccc(NC(=O)C4CC4)cc3)n2)[nH]n1", "note": "[MK-0457]", "values": [{"measurement": "tumor response in nude mice xenografts", "setting": "[1]", "value": "marked tumor regression"}, {"measurement": "Ki", "setting": "T315I mutant Abl kinase", "value": 42, "unit": "nM"}, {"measurement": "IC50", "setting": "MCF-7 cells", "value": "15 to 113", "unit": "nM"}, {"measurement": "Total AUC", "setting": "[2]; 24-hour CIV 16 mg/m^2/hr, N=1, cycle 1", "value": 18.8, "unit": "µM·h"}, {"measurement": "dose-adjusted AUC (average)", "setting": "[2]; 24-hour CIV infusion", "value": 0.0315, "unit": "µM·h/mg"}, {"measurement": "clearance", "setting": "[2]", "value": "900 to 2320", "unit": "mL/min"}, {"measurement": "half-life", "setting": "[2]", "value": "6.6 to 10.2", "unit": "h"}, {"measurement": "Vd", "setting": "[2]; 8 mg/m2", "value": 735, "unit": "L"}, {"measurement": "clearance", "setting": "[2]; 8 mg/m2", "value": 2320, "unit": "mL/min"}, {"measurement": "half-life", "setting": "[2]; 8 mg/m2", "value": 9.3, "unit": "h"}, {"measurement": "Cmax", "setting": "[2]; 8 mg/m^2/hr", "value": 274, "unit": "nM"}, {"measurement": "Vd", "setting": "[2]; 16 mg/m2", "value": 514, "unit": "L"}, {"measurement": "clearance", "setting": "[2]; 16 mg/m2", "value": 1690, "unit": "mL/min"}, {"measurement": "half-life", "setting": "[2]; 16 mg/m2", "value": 8.5, "unit": "h"}, {"measurement": "Cmax", "setting": "[2]; 16 mg/m^2/hr", "value": 911, "unit": "nM"}, {"measurement": "Vd", "setting": "[2]; 32 mg/m2", "value": 328, "unit": "L"}, {"measurement": "clearance", "setting": "[2]; 32 mg/m2", "value": 1160, "unit": "mL/min"}, {"measurement": "half-life", "setting": "[2]; 32 mg/m2", "value": 10.2, "unit": "h"}, {"measurement": "Cmax", "setting": "[2]; 32 mg/m^2/hr", "value": 2170, "unit": "nM"}, {"measurement": "Vd", "setting": "[2]; 45 mg/m2", "value": 429, "unit": "L"}, {"measurement": "clearance", "setting": "[2]; 45 mg/m2", "value": 1390, "unit": "mL/min"}, {"measurement": "half-life", "setting": "[2]; 45 mg/m2", "value": 10.2, "unit": "h"}, {"measurement": "Cmax", "setting": "[2]; 45 mg/m^2/hr", "value": 2670, "unit": "nM"}, {"measurement": "Vd", "setting": "[2]; 64 mg/m2", "value": 301, "unit": "L"}, {"measurement": "clearance", "setting": "[2]; 64 mg/m2", "value": 1270, "unit": "mL/min"}, {"measurement": "half-life", "setting": "[2]; 64 mg/m2", "value": 8, "unit": "h"}, {"measurement": "Cmax", "setting": "[2]; 64 mg/m^2/hr", "value": 4010, "unit": "nM"}, {"measurement": "Vd", "setting": "[2]; 96 mg/m2", "value": 248, "unit": "L"}, {"measurement": "clearance", "setting": "[2]; 96 mg/m2", "value": 893, "unit": "mL/min"}, {"measurement": "half-life", "setting": "[2]; 96 mg/m2", "value": 6.6, "unit": "h"}, {"measurement": "Cmax", "setting": "[2]; 96 mg/m^2/hr", "value": 7640, "unit": "nM"}, {"measurement": "Ki", "setting": "Aurora kinase A", "value": "[…]"}, {"measurement": "marked tumor regression, number of HCT116 nude rat models", "setting": "HCT116 colon cancer", "value": "4 of 7"}, {"measurement": "target plasma concentration for achieving efficacy", "setting": "HCT116 colon cancer; suggested by nude rat models", "value": "[…]"}, {"measurement": "dose limiting toxicity", "setting": "96 mg/m^2/hr 24-hour CIV infusion (dose level 7)", "value": "grade 4 neutropenia and grade 3 herpes zoster"}, {"measurement": "maximum tolerated dose (MTD)", "setting": "24-hour CIV infusion every 21 days, patients with advanced solid tumors", "value": 64, "unit": "mg/m^2/hr"}, {"measurement": "number of patients with Dehydration Grade 2", "setting": "[3]", "value": "[…]"}, {"measurement": "number of patients with Fatigue Grade 2", "setting": "[3]", "value": 1}, {"measurement": "number of patients with Nausea Grade 3", "setting": "[3]", "value": 1}, {"measurement": "number of patients with Vomiting Grade 3", "setting": "[3]", "value": 1}, {"measurement": "number of patients with Arthralgia Grade 2", "setting": "[4]", "value": 1}, {"measurement": "number of patients with Back pain Grade 2", "setting": "[4]", "value": 1}, {"measurement": "number of patients with Fatigue Grade 2", "setting": "[4]", "value": 1}, {"measurement": "number of patients with Hypoalbuminemia Grade 2", "setting": "[4]", "value": 1}, {"measurement": "number of patients with Increased alk phos (alkaline phosphatase) Grade 2", "setting": "[4]", "value": 1}, {"measurement": "number of patients with Urinary tract infection Grade 2", "setting": "[4]", "value": 1}, {"measurement": "number of patients with Diarrhea Grade 2", "setting": "[5]", "value": 1}, {"measurement": "number of patients with Nausea Grade 3", "setting": "[5]", "value": 1}, {"measurement": "number of patients with Vomiting Grade 3", "setting": "[5]", "value": 1}, {"measurement": "number of patients with Arthralgia Grade 2", "setting": "[6]", "value": 1}, {"measurement": "number of patients with Diarrhea Grade 2", "setting": "[6]", "value": 1}, {"measurement": "number of patients with Fatigue Grade 2", "setting": "[6]", "value": 1}, {"measurement": "number of patients with Nausea Grade 2", "setting": "[6]", "value": 1}, {"measurement": "number of patients with Vomiting (printed on the heading line, no grade)", "setting": "[6]", "value": 1}, {"measurement": "number of patients with Neutropenia Grade 3", "setting": "Dose Level 5 (45 mg/m^2/hr), N=4, any cycle", "value": 1}, {"measurement": "number of patients with Back pain Grade 2", "setting": "[7]", "value": 1}, {"measurement": "number of patients with Dyspnea Grade 2", "setting": "[7]", "value": 1}, {"measurement": "number of patients with Fatigue Grade 2", "setting": "[7]", "value": 2}, {"measurement": "number of patients with Hypophosphatemia Grade 3", "setting": "[7]", "value": 1}, {"measurement": "number of patients with Nausea Grade 2", "setting": "[7]", "value": 1}, {"measurement": "number of patients with Vomiting (printed on the heading line, no grade)", "setting": "[7]", "value": 1}, {"measurement": "number of patients with Leukopenia Grade 3", "setting": "[8]", "value": 1}, {"measurement": "number of patients with Neutropenia Grade 3", "setting": "[8]", "value": 1}, {"measurement": "number of patients with Arthralgia Grade 2", "setting": "[9]", "value": 1}, {"measurement": "number of patients with Fatigue Grade 3", "setting": "[9]", "value": 1}, {"measurement": "number of patients with Hyperglycemia Grade 3", "setting": "[9]", "value": 1}, {"measurement": "number of patients with Hypoalbuminemia Grade 2", "setting": "[9]", "value": 1}, {"measurement": "number of patients with Hypophosphatemia Grade 2", "setting": "[9]", "value": 1}, {"measurement": "number of patients with Urinary tract infection Grade 2", "setting": "[9]", "value": 1}, {"measurement": "number of patients with Leukopenia Grade 3", "setting": "[10]", "value": 1}, {"measurement": "number of patients with Neutropenia Grade 3", "setting": "[10]", "value": 1}, {"measurement": "number of patients with Arthralgia Grade 4", "setting": "[11]", "value": 1}, {"measurement": "number of patients with Back pain Grade 2", "setting": "[11]", "value": 1}, {"measurement": "number of patients with Dehydration Grade 2", "setting": "[11]", "value": "[…]"}, {"measurement": "number of patients with Diarrhea Grade 3", "setting": "[11]", "value": 2}, {"measurement": "number of patients with Dyspnea Grade 2", "setting": "[11]", "value": 2}, {"measurement": "number of patients with Fatigue Grade 2", "setting": "[11]", "value": 5}, {"measurement": "number of patients with Hyperglycemia Grade 2", "setting": "[11]", "value": 1}, {"measurement": "number of patients with Hyperglycemia Grade 3", "setting": "[11]", "value": 1}, {"measurement": "number of patients with Hypoalbuminemia Grade 2", "setting": "[11]", "value": 1}, {"measurement": "number of patients with Hypophosphatemia Grade 2", "setting": "[11]", "value": 2}, {"measurement": "number of patients with Hypophosphatemia Grade 3", "setting": "[11]", "value": 1}, {"measurement": "number of patients with Nausea Grade 2", "setting": "[11]", "value": 2}, {"measurement": "number of patients with Urinary tract infection Grade 2", "setting": "[11]", "value": 1}, {"measurement": "number of patients with Vomiting Grade 3", "setting": "[11]", "value": 2}, {"measurement": "number of patients with Anemia Grade 3", "setting": "[12]", "value": 1}, {"measurement": "number of patients with Leukopenia Grade 3", "setting": "[12]", "value": 3}, {"measurement": "number of patients with Neutropenia Grade 3", "setting": "[12]", "value": 1}, {"measurement": "number of patients with Neutropenia Grade 4", "setting": "[12]", "value": 1}, {"measurement": "number of patients with Diarrhea Grade 2", "setting": "[13]", "value": 1}, {"measurement": "number of patients with Dyspnea Grade 3", "setting": "[13]", "value": 1}, {"measurement": "number of patients with Fatigue Grade 2", "setting": "[13]", "value": 3}, {"measurement": "number of patients with Hypoalbuminemia Grade 3", "setting": "[13]", "value": 1}, {"measurement": "number of patients with Increased alk phos (alkaline phosphatase) Grade 2", "setting": "[13]", "value": 1}, {"measurement": "number of patients with Urinary tract infection Grade 2", "setting": "[13]", "value": 1}, {"measurement": "prolongation of the QTc", "setting": "ECG pre-dose and after 24-hour infusion, cycle 1", "value": "not observed"}, {"measurement": "febrile neutropenia", "setting": "all dose levels, any cycle", "value": "no cases"}, {"measurement": "patients with dose reduced due to toxicity", "setting": "of 27 patients (11%)", "value": "Three"}, {"measurement": "patients with treatment delayed or dose reduced due to toxicity", "setting": "of 27 patients (15%)", "value": 4, "unit": "patients"}, {"measurement": "patients with serious adverse events regardless of attribution", "setting": "of 27 patients (33%), all dose levels", "value": 9, "unit": "patients"}, {"measurement": "deaths on study or within 30 days of follow-up", "setting": "patients who received MK-0457", "value": "no deaths"}, {"measurement": "adverse events at least possibly related to study drug after oral dose", "setting": "single 100 mg capsule, between oral dose and start of CIV infusion, 7 patients", "value": "No adverse events"}, {"measurement": "median duration of stable disease", "setting": "advanced solid tumors; 12 patients, range 38 – 328 days", "value": "[…]"}, {"measurement": "objective anti-tumor responses (RECIST)", "setting": "advanced solid tumors; all dose levels", "value": "no objective anti-tumor responses"}, {"measurement": "patients with stable disease (2 or more cycles without progression)", "setting": "advanced solid tumors; all dose levels", "value": 12, "unit": "patients"}, {"measurement": "Ki", "setting": "Abl", "value": 30, "unit": "nM"}]}]}
